Data as given in ChEMBL document CHEMBL3593235, “Discovery of xanthine oxidase inhibitors and/or α-glucosidase inhibitors by carboxyalkyl derivatization based on the flavonoid of apigenin” (Bioorg Med Chem Lett, 2015).
The source made the active and inactive calls. The calls are words filed in the database; no cut-off is given here.

Experiments:
[1] = Inhibition of alpha glucosidase (unknown origin) using para-nitrophenyl-alpha-D-glucopyranoside as substrate preincubated for 15 mins followed by substrate addition measured after 10 mins by spectrophotometric analysis; parameters: species or system Homo sapiens
[2] = tested on: Mus musculus; test: Hypouricemic activity in ICR mouse assessed as decrease in potassium oxonate-induced serum uric acid level at 10 mg/kg, ip after 1 hr by Uricase colorimetric method; type: functional, organism-based
[3] = tested on: Mus musculus; test: Hypoglycemic activity in ICR mouse assessed as decrease in elevated postprandial blood glucose level at 20 mg/kg, po administered 30 mins prior to sucrose challenge measured after 30 mins by OSTT; type: functional, organism-based
[4] = molecular target: Xanthine dehydrogenase/oxidase (Homo sapiens, UniProt P47989); test: Inhibition of xanthine oxidase (unknown origin) using xanthine as substrate preincubated for 15 mins followed by substrate addition measured after 30 mins by spectrophotometric analysis
Chain of Xanthine dehydrogenase/oxidase (P47989 whole entry): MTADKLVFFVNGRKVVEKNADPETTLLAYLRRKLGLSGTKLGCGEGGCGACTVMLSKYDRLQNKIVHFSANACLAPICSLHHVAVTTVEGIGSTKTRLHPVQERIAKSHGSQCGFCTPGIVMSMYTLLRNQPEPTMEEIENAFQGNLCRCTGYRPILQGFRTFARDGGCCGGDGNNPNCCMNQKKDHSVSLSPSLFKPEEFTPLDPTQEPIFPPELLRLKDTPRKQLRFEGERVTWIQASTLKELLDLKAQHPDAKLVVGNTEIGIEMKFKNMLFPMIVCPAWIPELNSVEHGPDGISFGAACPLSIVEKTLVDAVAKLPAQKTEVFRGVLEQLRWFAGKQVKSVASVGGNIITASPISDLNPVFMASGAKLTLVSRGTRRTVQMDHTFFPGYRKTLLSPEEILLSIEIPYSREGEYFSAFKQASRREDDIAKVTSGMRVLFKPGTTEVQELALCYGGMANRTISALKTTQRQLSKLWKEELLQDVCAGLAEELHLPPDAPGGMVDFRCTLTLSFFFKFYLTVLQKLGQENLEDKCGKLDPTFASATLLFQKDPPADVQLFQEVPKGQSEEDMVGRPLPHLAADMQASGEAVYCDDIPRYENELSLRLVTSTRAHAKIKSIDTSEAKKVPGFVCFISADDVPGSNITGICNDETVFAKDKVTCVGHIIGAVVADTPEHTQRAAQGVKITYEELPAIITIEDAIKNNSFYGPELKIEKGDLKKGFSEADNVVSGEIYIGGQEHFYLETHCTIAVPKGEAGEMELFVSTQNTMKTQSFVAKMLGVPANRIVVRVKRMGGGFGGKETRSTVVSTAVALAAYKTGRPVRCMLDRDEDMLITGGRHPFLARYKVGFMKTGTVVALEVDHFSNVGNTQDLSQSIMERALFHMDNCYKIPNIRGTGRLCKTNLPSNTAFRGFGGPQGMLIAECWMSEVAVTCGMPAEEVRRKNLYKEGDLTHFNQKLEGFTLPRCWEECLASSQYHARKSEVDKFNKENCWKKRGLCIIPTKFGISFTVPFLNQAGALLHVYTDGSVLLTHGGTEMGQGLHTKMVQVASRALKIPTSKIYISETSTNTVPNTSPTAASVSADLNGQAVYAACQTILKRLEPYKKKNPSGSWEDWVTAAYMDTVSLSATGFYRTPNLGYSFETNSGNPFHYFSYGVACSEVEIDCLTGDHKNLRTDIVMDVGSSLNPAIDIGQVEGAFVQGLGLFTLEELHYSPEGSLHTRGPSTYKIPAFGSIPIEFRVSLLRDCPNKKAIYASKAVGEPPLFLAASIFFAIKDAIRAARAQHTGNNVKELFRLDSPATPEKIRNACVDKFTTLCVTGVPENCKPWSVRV

[5] = tested on: Mus musculus; test: Hypoglycemic activity in ICR mouse assessed as decrease in elevated postprandial blood glucose level at 20 mg/kg, po administered 30 mins prior to glucose challenge measured after 30 mins by OGTT; type: functional, organism-based

SMILES	IC50 [1]	Activity [2]	Activity [3]	IC50 [4]	Activity [5]
O=C(O)CCCCCCCOc1cc(O)cc2oc(-c3ccc(O)cc3)cc(=O)c12	> 500 µM				
O=C(O)CCCOc1cc(O)cc2oc(-c3ccc(O)cc3)cc(=O)c12	35.9 µM				
Oc1ncnc2[nH]ncc12		Active			
O=C(O)CCCCCCCOc1cc(O)c2c(=O)cc(-c3ccc(O)cc3)oc2c1	18.3 µM		inactive	> 100 µM	inactive
C[C@H]1O[C@H](O[C@H]2[C@H](O)[C@@H](O)[C@@H](O[C@H]3[C@H](O)[C@@H](O)C(O)O[C@@H]3CO)O[C@@H]2CO)[C@H](O)[C@@H](O)[C@@H]1N[C@H]1C=C(CO)[C@@H](O)[C@H](O)[C@H]1O (some centres undefined) [ACARBOSE]	222 µM		Active		
O=C(O)CCCCOc1ccc(-c2cc(=O)c3c(O)cc(O)cc3o2)cc1	> 500 µM			0.22 µM	
O=C(O)CCCCCCOc1cc(O)c2c(=O)cc(-c3ccc(O)cc3)oc2c1	90.4 µM			> 100 µM	
O=c1cc(-c2ccc(O)cc2)oc2cc(O)cc(O)c12 [APIGENIN]	24.3 µM	inactive	inactive	3.2 µM	
O=C(O)CCCCCCOc1ccc(-c2cc(=O)c3c(O)cc(O)cc3o2)cc1	> 500 µM	Active		0.098 µM	
O=C(O)CCCOc1ccc(-c2cc(=O)c3c(O)cc(O)cc3o2)cc1	> 500 µM			0.6 µM	
O=C(O)CCCCOc1cc(O)cc2oc(-c3ccc(O)cc3)cc(=O)c12	39 µM		inactive		inactive
O=C(O)COc1cc(O)c2c(=O)cc(-c3ccc(O)cc3)oc2c1	61.2 µM				
O=C(O)CCCCCOc1cc(O)c2c(=O)cc(-c3ccc(O)cc3)oc2c1	101 µM			> 100 µM	
O=C(O)COc1ccc(-c2cc(=O)c3c(O)cc(O)cc3o2)cc1	> 500 µM				
O=C(O)CCCCCOc1ccc(-c2cc(=O)c3c(O)cc(O)cc3o2)cc1	> 500 µM			0.32 µM	
O=C(O)CCCCCCOc1cc(O)cc2oc(-c3ccc(O)cc3)cc(=O)c12	51.4 µM		Active		inactive
O=C(O)CCCCCCCOc1ccc(-c2cc(=O)c3c(O)cc(O)cc3o2)cc1	> 500 µM			0.25 µM	
O=C(O)COc1cc(O)cc2oc(-c3ccc(O)cc3)cc(=O)c12	113 µM				
O=C(O)CCCOc1cc(O)c2c(=O)cc(-c3ccc(O)cc3)oc2c1	44.5 µM			> 100 µM	
O=C(O)CCCCOc1cc(O)c2c(=O)cc(-c3ccc(O)cc3)oc2c1	33.7 µM			> 100 µM	
O=C(O)CCCCCOc1cc(O)cc2oc(-c3ccc(O)cc3)cc(=O)c12	26.2 µM		Active		inactive
